Test results taken from patent US7087714B2, “Mu-Opiod receptor splice variant polypeptides” (Memorial Sloan-Kettering Cancer Center, priority 2001, dated 2006).

Key:
exon 11-containing mRNA = assay: RT-PCR of exon 11-containing mRNA in brains of mice given antisense i.c.v.; type: in vivo, mouse; conditions: 10 μg i.c.v. daily for 4 days, brain RNA on fifth day
[1] = system: exon 11-like immunoreactivity (E11-LI); assay: Immunohistochemical labeling (exon 11-like immunoreactivity) in striatum after antisense treatment; type: in vivo, mouse; conditions: 10 μg i.c.v. daily for 4 days, perfused on fifth day; p<0.05
MOR-1 gene = assay: In vivo antisense mapping, radiant heat tailflick assay of opioid analgesia; design: species or system mice; conditions: 5 μg oligodeoxynucleotide on days 1, 3 and 5, tailflick on day 6

Substance	lowering of the levels of exon 11 expression (RT-PCR) (exon 11-containing mRNA)	downregulation of immunohistochemical labeling in the striatum compared to the control group [1]	effect on spinal (i.t.) M6G analgesia (MOR-1 gene)	effect on spinal (i.t.) morphine analgesia (MOR-1 gene)	effect on supraspinal (i.c.v.) M6G analgesia (MOR-1 gene)	effect on supraspinal (i.c.v.) morphine analgesia (MOR-1 gene)	effect on opioid (morphine or M6G) analgesia, mismatch control (MOR-1 gene)
antisense E11A: antisense oligodeoxynucleotide targeting exon 11: 5′GACAGTCACTGGTGCCTATGCAAT3′ (SEQ ID NO 48) (DNA, backbone not given here)	approximately 40%	over 50%					
exon 1 probe: antisense probe targeting exon 1: 5′CGCCCCAGCCTCTTCCTCT3′ (SEQ ID NO 47) (listed as DNA, chemistry not given here)			inactive	not spinally	inactive	reduced	
mismatch E11A: mismatch probe based upon the 11a antisense probe: 5′GACGATCACGTGTGCTCATGACAT3′ (SEQ ID NO 50) (listed as DNA, chemistry not given here) [reference compound]	inactive	without effect					inactivity
